Results as given in US8067015B2, “Methods and compositions for the treatment and prevention of Staphylococcus and other bacterial infections” (priority 1997, dated 2011).
Where two headings read alike, the source gives them in different places. Where no end group is shown, it is not given here.

Assays:
[1] = test system: S. epidermidis GISE strain; experiment: Rat subcutaneous Dacron graft infection model, GISE strain; assay type: in vivo; details: for Bacterial concentration, GISE: 2×10^7 bacteria, explanted day 7; for Bacterial concentration, GISE / Bacterial load on graft, GISE: mean ± SD; for Bacterial load on graft, GISE: Table 3A S. epidermidis
Description: (§1) Rats (Wistar adult males (300-350 g), n=15/experimental group) were anaesthetized, hair on their back shaved and the skin cleansed with 10% povidone-iodine solution. A subcutaneous pocket was made on the side of the median line by a 1.5 cm incision. Aseptically, 1 cm^2 sterile collagen-sealed Dacron graft (Albograft™, Sorin Biomedica Cardio, S.p.A., Saluggi VC, Italy) was implanted into the pocket. […] Pockets were closed by skin clips and 1 ml sterile saline solution with or without 2×10^7 bacteria was inoculated onto the graft surface using a tuberculin syringe to create a subcutaneous fluid-filled pocket. Some of the animals that had grafts soaked only with RIP or saline were injected intraperitoneally with antibiotics (cefazolin 30 mg/kg, imipenem 30 mg/kg, teicoplanin 10 mg/kg, levofloxacin 10 mg/kg). Grafts were explanted 7 days following implantation.
(§2) The explanted grafts were placed in sterile tubes, washed in sterile saline solution, placed in tubes containing 10 ml of phosphate-buffered saline solution and sonicated for 5 min to remove the adherent bacteria from the grafts. Quantitation of viable bacteria was performed by culturing serial 10-fold dilutions (0.1 ml) of the bacterial suspension on blood agar plates. All plates were incubated at 37° C. for 48 hr and evaluated for the presence of the strain. Bacteria were quantitated by counting the number of colony forming unites (CFU) per plate. To determine if bacteria were efficiently removed from the graft, washed and sonicated grafts were observed under a Nikon Eclipse E 600 optical microscope (Nikon Y-THS, Japan).
(§3) Quantitative culture results of the in vivo experiments were presented as mean+SD of the mean. Comparisons of the results were performed by the analysis of variance (ANOVA) on the log-transformed data. Statistical analysis was performed for in vitro adhesion assays using Student's t-Test by Microsoft Excel (Microsoft, Wash.). Significance was accepted when the P value was <0.05.
(§4) To test if RIP can prevent graft-associated infections, Dacron grafts were coated with or without RIP, and with or without various types of antibiotics (for local prophylaxis experiments). Coated grafts were implanted in rats, bacteria injected into the implants, implants removed after a week, and bacterial load determined. Alternatively, Dacron grafts were first coated with RIP, bacteria injected, and antibiotics were administered by the intraperitoneal route (for parenteral prophylaxis experiments). As a negative control, grafts were implanted without local or parenteral RIP/antibiotics prophylaxis and no bacteria were injected. As a positive control, grafts were implanted, bacteria were injected, but no RIP/antibiotics prophylaxis was given.
(§5) Animals (15/group) received a Dacron-graft implanted in a subcutaneous pocket. Graft was subsequently infected with either S. epidermidis (tested on MSSE, MRSE and GISE) or with S. aureus (tested on MSSA, MRSA and GISA). […]

[2] = test system: S. epidermidis MSSE strain; experiment: Rat subcutaneous Dacron graft infection model, MSSE strain; assay type: in vivo; details: for Bacterial concentration, MSSE: 2×10^7 bacteria, explanted day 7; for Bacterial concentration, MSSE / Bacterial load on graft, MSSE: mean ± SD; for Bacterial load on graft, MSSE: Table 3A S. epidermidis
Description: as §1, §2, §3, §4, §5

S. aureus GISA = experiment: Rat subcutaneous Dacron graft infection model, GISA strain; assay type: in vivo; details: Table 3B S. aureus, mean ± SD
Description: as §1, with “implantation. Estimated RIP that adhered to graft was 10-26 μg.” for “implantation.”
as §2
Animals (15/group) received a Dacron-graft implanted in a subcutaneous pocket. Graft was subsequently infected with either S. epidermidis (tested on MSSE, MRSE and GISE) or with S. aureus (tested on MSSA, MRSA and GISA). The Dacron-graft prior to implantation was soaked in saline with or without 20 mg/l of RIP and some animals received […] of RIP i.p. as a prophylaxis treatment.

TRAP = details: 1 hr
Description: S. aureus (right panel) and S. epidermidis (left panel) were in vivo phosphorylated for 1 hr in the presence or absence of RIP. Total cell homogenate was separated by SDS PAGE and the gel was autoradiographed.
To test for TRAP phosphorylation in S. epidermidis, in vivo phosphorylation assays were carried out as described for S. aureus. Briefly, early exponential S. epidermidis were grown in the presence of phosphate-free buffer supplemented with radiolabeled orthophosphate with or without RIP (10 μg/10^7 cells). After a 1 hr incubation period, the cells were collected by centrifugation, treated with lysostaphin followed by the addition of sample buffer, and total cell homogenate was applied without boiling to 15% SDS PAGE and the gel autoradiographed. The same experiment was carried out on 6390B S. aureus cells as a positive control.

S. aureus 8325-4 = details: rabbits; cited from earlier work
[3] = test system: bacterial adhesion to HEp2 cells; details: cited from earlier work
[4] = A. Local prophylaxis: graft soaked 20 min in RIP 10 mg/l and/or antibiotic (mupirocin 100, quinupristin-dalfopristin 50, levofloxacin 30, rifampin 5 mg/l), rats
[5] = B. Parenteral prophylaxis: antibiotic intraperitoneally (cefazolin 30, imipenem 30, teicoplanin 10, levofloxacin 10 mg/kg), RIP as 10 mg/l graft soak, rats
[6] = RIP local (graft soaked in 20 mg/l RIP)
[7] = RIP parenteral (10 mg/l RIP i.p.)
[8] = peptide-soaked/coated Dacron graft (RIP 10 mg/l), no antibiotic, rats, day 7

For YSPWTNF(—NH2) (YSPWTNF-NH2) [RIP], the “Bacterial concentration, GISE” value [1, 4] was 6.2 ± 2.4 ×10^4 CFU/ml, the “Bacterial concentration, GISE” value [1, 5] was 6.2 ± 2 ×10^4 CFU/ml and the “Bacterial load on graft, GISE” value [1, 6] was 0.46 ± 0.13 ×10^4 CFU/ml. For the same substance, the “Bacterial load on graft, GISE” value ([1]; RIP local + RIP parenteral) was 0.00 ± 0 ×10^4 CFU/ml, the “Bacterial load on graft, GISE” value [1, 7] was 0.31 ± 0.6 ×10^4 CFU/ml and the “Quantitative culture results of explanted graft, GISE strain” value [1, 8] was 6.2×10^4±2.0×10^4 CFU/ml. For the same substance, the “RIP graft treatment inhibiting bacteria better than parenteral antibiotics prophylaxis” value ([1]; rats inoculated with GISE) was 10 to 100 fold, the “Bacterial concentration, MSSE” value [2, 4] was 0.91 ± 0.23 ×10^4 CFU/ml and the “Bacterial concentration, MSSE” value [2, 5] was 0.91 ± 0.23 ×10^4 CFU/ml. The “Bacterial load on graft, MSSE” value [2, 6] was 0.08 ± 0.024 ×10^4 CFU/ml, the “Bacterial load on graft, MSSE” value ([2]; RIP local + RIP parenteral) was 0.00 ± 0 ×10^4 CFU/ml and the “Bacterial load on graft, MSSE” value [2, 7] was 0.067 ± 0.019 ×10^4 CFU/ml. The “Quantitative culture results of explanted graft, MSSE strain” value [2, 8] was 9.1×10^3±2.3×10^3 CFU/ml, the “Bacterial load on graft, GISE” value (S. aureus GISA; [6]) was 0.70 ± 0.28 ×10^4 CFU/ml and the “Bacterial load on graft, GISE” value (S. aureus GISA; RIP local + RIP parenteral) was 0.00 ± 0 ×10^4 CFU/ml. The “Bacterial load on graft, GISE” value (S. aureus GISA; [7]) was 0.49 ± 0.11 ×10^4 CFU/ml, the TRAP phosphorylation (TRAP; RIP 10 μg/10^7 cells, S. epidermidis) was “can be inhibited” and the TRAP phosphorylation (TRAP; in presence or absence of RIP, S. aureus) was “inhibits TRAP phosphorylation”. For the same substance, the “Suppressing S. aureus infection: keratitis” value (S. aureus 8325-4) was “extremely effective” and the “Bacterial adhesion to eukaryotic cells” value [3] was “decreased”.
